The assay relates to Aβ42 secretion. The assay is described as follows: Cellular γ-secretase assay (inhibition of Aβ42 secretion). The class given is cell-based. The following applies: Homo sapiens, 22 h, human neuroglioma H4 cells overexpressing human APP, 22 hours incubation. The gist of the method:
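H4 neuroglioma cells overexpressing human APP were exposed to compounds (ten-point dilution series, 0.4% DMSO) for 22 h at 37°C. Secreted Aβ42 in supernatant measured by electrochemiluminescence sandwich immunoassay (ruthenylated BAP15 detection, biotinylated 6E10 capture on streptavidin beads). IC50 by nonlinear regression.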

With `O=C(Nc1cccc(F)c1)c1cc2cc([C@@H]3CCCN(C4CC4)C3)ccc2[nH]1` [Example 117, (S)-5-(1-Cyclopropylpiperidin-3-yl)-N-(3-fluorophenyl)-1H-indole-2-carboxamide], the response was half-maximal at 4360 nM (EC50). Regarding `CC(=O)N1CCC[C@@H](c2ccc3[nH]c(C(=O)Nc4cc(F)cc(F)c4)cc3c2)C1` [Example 113, 5-((S)-1-Acetyl-piperidin-3-yl)-1H-indole-2-carboxylic acid (3,5-difluoro-phenyl)-amide], the EC50 (in general, the concentration at which the effect is half-maximal) stood at 1790 nM. For `CC(C)N1CCCC(c2ccc3[nH]c(C(=O)Nc4cc(F)cc(Cl)c4)cc3c2)C1` (centres unmarked) [Example 30, N-(3-Chloro-5-fluorophenyl)-5-(1-isopropylpiperidin-3-yl)-1H-indole-2-carboxamide] the value was 742 nM. For the compound `CCC1(c2ccc3[nH]c(C(=O)Nc4cc(F)cc(F)c4)cc3c2)CCC(=O)NC1=O` (centres unmarked) [Example 19, 5-(3-Ethyl-2,6-dioxo-piperidin-3-yl)-1H-indole-2-carboxylic acid (3,5-difluoro-phenyl)-amide], a half-maximal effect (EC50) was put at 2630 nM.

The compound `CN1CCCC(c2ccc3[nH]c(C(=O)Nc4cc(F)cc(F)c4)cc3c2)C1` (centres unmarked) [Example 59, 5-(1-Methyl-piperidin-3-yl)-1H-indole-2-carboxylic acid (3,5-difluoro-phenyl)-amide] registered a 50% effective concentration (EC50) of 183 nM. Regarding `O=C(Nc1ccc(F)cc1)c1cc2cc(C3CCN(Cc4ccccc4)CC3)ccc2[nH]1` [Example 38, 5-(1-Benzyl-piperidin-4-yl)-1H-indole-2-carboxylic acid (4-fluoro-phenyl)-amide], the EC50 was determined as 1290 nM. As for `COC(=O)N1CCC(c2ccc3[nH]c(C(=O)Nc4ccc(F)cc4)cc3c2)CC1` [Example 41, 4-[2-(4-Fluoro-phenylcarbamoyl)-1H-indol-5-yl]-piperidine-1-carboxylic acid methyl ester], the EC50 came to 1910 nM.

On to `CC(=O)N1CCC[C@H](c2ccc3[nH]c(C(=O)Nc4cc(F)cc(F)c4)cc3c2)C1` [Example 112, 5-((R)-1-Acetyl-piperidin-3-yl)-1H-indole-2-carboxylic acid (3,5-difluoro-phenyl)-amide], for which the response was half-maximal at 226 nM (EC50). For the compound `COC(=O)CN1CCC(c2ccc3[nH]c(C(=O)Nc4ccc(F)cc4)cc3c2)CC1` [Example 43, {4-[2-(4-Fluoro-phenylcarbamoyl)-1H-indol-5-yl]-piperidin-1-yl}-acetic acid methyl ester], the EC50 was determined as 2470 nM. For `CC(c1ccc2[nH]c(C(=O)Nc3cc(F)cc(F)c3)cc2c1)C1CCNC1` (centres unmarked) [Example 92, N-(3,5-Difluorophenyl)-5-(1-(pyrrolidin-3-yl)ethyl)-1H-indole-2-carboxamide] the value was 1180 nM; for `CC(c1ccc2[nH]c(C(=O)Nc3cc(F)cc(F)c3)cc2c1)N1CCCC1` (centres unmarked) [Example 90, 5-(1-Pyrrolidin-1-yl-ethyl)-1H-indole-2-carboxylic acid (3,5-difluoro-phenyl)-amide], 877 nM; for `O=C(Nc1cc(F)cc(F)c1)c1cc2cc(C3CCCN(C(=O)c4ccccc4)C3)ccc2[nH]1` (centres unmarked) [Example 55, 5-(1-Benzoyl-piperidin-3-yl)-1H-indole-2-carboxylic acid (3,5-difluoro-phenyl)-amide], 449 nM. In the case of `O=C(Nc1cc(F)cc(F)c1)c1cc2cc(C3CCCN(S(=O)(=O)C4CC4)C3)ccc2[nH]1` (centres unmarked) [Example 56, 5-(1-Cyclopropanesulfonyl-piperidin-3-yl)-1H-indole-2-carboxylic acid (3,5-difluoro-phenyl)-amide], the response was half-maximal at 466 nM (EC50). In turn, `COCCN1CCC(c2ccc3[nH]c(C(=O)Nc4ccc(F)cc4)cc3c2)CC1` [Example 37, 5-[1-(2-Methoxy-ethyl)-piperidin-4-yl]-1H-indole-2-carboxylic acid (4-fluoro-phenyl)-amide] yielded an EC50 of 1430 nM. With `CC(C)N1CCC(c2ccc3[nH]c(C(=O)Nc4ccc(F)c(F)c4)cc3c2)CC1` [Example 28, 5-(1-Isopropyl-piperidin-4-yl)-1H-indole-2-carboxylic acid (3,4-difluoro-phenyl)-amide], the EC50 worked out at 852 nM. In the case of `CN1CCC(c2ccc3[nH]c(C(=O)Nc4ccc(F)cc4)cc3c2)CC1` [Example 36, 5-(1-Methyl-piperidin-4-yl)-1H-indole-2-carboxylic acid (4-fluoro-phenyl)-amide], the midpoint of the response, the EC50, lay at 1090 nM. For the compound `Cc1cc(F)cc(NC(=O)c2cc3cc(C4CCCN(C(C)C)C4)ccc3[nH]2)c1` (centres unmarked) [Example 34, N-(3-Fluoro-5-methylphenyl)-5-(1-isopropylpiperidin-3-yl)-1H-indole-2-carboxamide], the EC50 was 926 nM.

These data come from US20150274661A1, “INDOL-AMIDE COMPOUNDS AS BETA-AMYLOID INHBITORS” (Hoffmann-La Roche Inc., priority 2012, published 2015).
